Results published in publication PMC6271887, “Antiparasitic Activity of Natural and Semi-Synthetic Tirucallane Triterpenoids from Schinus terebinthifolius (Anacardiaceae): Structure/Activity Relationships” (Molecules, 2014).
Converted amounts (≈) assume the structure as drawn. Read-outs that look alike come from different tables or passages of the source.

Assays:
NCTC clone 929 cells = experiment: Cytotoxicity against mammalian cells (MTT); type: cell-based
Protocol: (§1) Peritoneal macrophages were collected from the peritoneal cavity of female BALB/c mice by washing with RPMI-1640 without phenol red, supplemented with 10% FBS. NCTC (clone 929) cells were maintained in RPMI-1640 (without phenol red and supplemented with 10% FBS) at 37 °C in a humidified atmosphere containing 5% CO2 [31]. The 50% cytotoxic concentration (CC50) was determined in NCTC clone 929 cells. NCTC cells were seeded at 6 × 10^4 cells/well in 96-well microplates at 37 °C in a 5% CO2. The mammalian cells were incubated with tested compounds to the highest concentration of 200 μg/mL for 48 h at 37 °C, using miltefosine as standard drug. The viability of the cells was determined by MTT assay at 570 nm. The selectivity index (SI) was determined considering the following equation: CC50 NCTC cells/IC50 parasites.

[1] = Cytotoxicity against mammalian cells (MTT); type: cell-based; conditions: mouse
Protocol: as §1

[2] = system: T. cruzi trypomastigotes (Y strain); experiment: Activity against Trypanosoma cruzi trypomastigotes (MTT); type: cell-based; conditions: for SI TRY: selectivity index trypomastigotes: CC50 mammalian cells/IC50 trypomastigotes; for IC50: Trypanosoma cruzi, 37 °C, 100 to 0.78 μg/mL, NA: not active, read-out: IC50 CI95% T. cruzi Trypomastigotes; for T. cruzi (Trypomastigotes) Experimental: class, without activity at 100 µg/mL = inactive
Protocol: (§2) Isolated promastigotes of L. (L.) infantum (MHOM/BR/1972/LD) were maintained in M-199 medium supplemented with 10% fetal bovine serum (FBS) and 0.25% hemin at 24 °C. L. infantum was maintained in golden hamsters up to 60–70 days post-infection. Amastigotes were harvested from spleens of infected hamsters by differential centrifugation. T. cruzi trypomastigotes (Y strain) were maintained in LLC-MK2 (ATCC CCL 7) cells using RPMI-1640 medium supplemented with 2% FBS at 37 °C 5% CO2-humidified incubator [21].
Compounds 1–3, 1a–c, 2a–d, 3a, and 3b were dissolved in DMSO and diluted in RPMI-1640 medium to determine the 50% inhibitory concentration (IC50) as described above for the antileishmanial assay. Free trypomastigotes obtained from LLC-MK2 cultures were counted in a Neubauer hemocytometer and seeded at 1 × 10^6/well in 96-well microplates. The tested compounds were incubated in a range concentration of 100 to 0.78 μg/mL for 24 h at 37 °C in a 5% CO2 humidified incubator, using benznidazole as standard drug. The viability of the trypomastigotes was verified by the MTT assay as described above.

[3] = system: L. infantum intracellular amastigotes; experiment: Activity against L. infantum intracellular amastigotes in peritoneal macrophages (Giemsa, microscopy); type: cell-based, Leishmania (L.) infantum; conditions: for SI AMA: selectivity index amastigotes: CC50 mammalian cells/IC50 Leishmania amastigotes; for IC50: Leishmania infantum, Peritoneal macrophage, intracellular, peritoneal macrophages, 120 h, 100 to 0.78 μg/mL, NA: not active, read-out: IC50 CI95% L. infantum Amastigotes; for L. infantum (Amastigotes) Experimental: class, without activity at 100 µg/mL = inactive
Protocol: as §2
Peritoneal macrophages were collected from the peritoneal cavity of female BALB/c mice by washing with RPMI-1640 without phenol red, supplemented with 10% FBS. NCTC (clone 929) cells were maintained in RPMI-1640 (without phenol red and supplemented with 10% FBS) at 37 °C in a humidified atmosphere containing 5% CO2 [31].
Peritoneal macrophages were obtained as described previously and L. infantum amastigotes were obtained from spleens of infected hamsters by differential centrifugation. Peritoneal macrophages were seeded at 1 × 10^5 cells per well in Nunc™ 16-well slide chambers (Aldrich, St. Louis, MO, USA) for 24 h at 37 °C in a 5% CO2-humidified incubator. Amastigotes were added to macrophages at 10:1 ratio (amastigotes:macrophage) and incubated for 24 h. Non-internalized parasites were removed by washing twice with medium and the cells were then incubated with compounds in a range concentration of 100 to 0.78 μg/mL for 120 h at 37 °C in 5% CO2, using miltefosine as standard drug. At the end of the assay, the cells were fixed in methanol, stained with Giemsa and observed under a light microscope to determine the number of infected macrophages out of 400 cells.

[4] = system: L. infantum promastigotes; set-up: method as in PMID 24374794; conditions: CI95% not given; cited from earlier work
[5] = system: L. infantum intracellular amastigotes; set-up: method as in PMID 24374794; conditions: CI95% not given; cited from earlier work
[6] = system: extracellular forms of the parasite; set-up: method as in PMID 10603400; conditions: cited from earlier work
[7] = system: L. infantum promastigotes; experiment: Activity against L. infantum promastigotes (MTT, light microscopy); type: cell-based; conditions: Leishmania infantum; 48 h, 24 °C, 100 to 0.78 μg/mL; NA: not active; read-out: IC50 CI95% L. infantum Promastigotes
Protocol: as §2
To determine the 50% inhibitory concentration (IC50) against L. infantum promastigotes, compounds 1–3, 1a–c, 2a–d, 3a, and 3b were previously dissolved in dimethyl sulphoxide (DMSO) and diluted with M-199 medium in 96-well microplates. Promastigotes were counted in a Neubauer hemocytometer and seeded at 1 × 10^6/well with a final volume of 150 μL. The tested compounds were incubated in a range concentration of 100 to 0.78 μg/mL for 48 h at 24 °C. The viability of promastigotes was verified by motility and morphology using light microscopy and by the colorimetric MTT assay. Briefly, 3-[4,5-dimethylthiazol-2-yl]-2,5-diphenyltetrazolium bromide (MTT, 5 mg/mL) was dissolved in phosphate-buffered saline (PBS), sterilized through 0.22 µm membranes and added, 20 µL/well, for 4 h at 24 °C. […]

[8] = system: T. cruzi trypomastigotes (Y strain); set-up: method as in PMID 24340110; conditions: CI95% not given; cited from earlier work
[9] = NCTC clone 929 cells, NCTC clone 929, 48 h, highest concentration 200 μg/mL, read-out: CC50 CI95% NCTC

| Compound | SI TRY: selectivity index trypomastigotes [2] | IC50 ([2]; 24 h) [µg/mL] | SI AMA: selectivity index amastigotes [3] | NCTC Experimental (NCTC clone 929 cells) | CC50 at 48 h ([1]; CC50 CI95% NCTC) [µg/mL] | L. infantum (Amastigotes) Experimental [3] | other results |
| --- | --- | --- | --- | --- | --- | --- | --- |
| C/C(=C\CCC(C)[C@@H]1CC[C@]2(C)C3=CCC4C(C)(C)C(=O)CC[C@]4(C)C3CC[C@@]12C)C(=O)O (stereo partly shown) [Compound 2, 3-Oxotirucalla-7,24E-dien-27-oic acid] | 6.1 | 15.8 (≈ 34.6 µM) | 1.5 |  |  |  | CC50 CI95% NCTC (NCTC clone 929 cells; NCTC clone 929, 48 h, highest concentration 200 μg/mL): 96.48 (77.38–120.30) μg/mL; NCTC Experimental (NCTC clone 929 cells; cytotoxicity class): I; CC50 at 48 h [1, 9]: 96 µg/mL (≈ 211 µM); IC50 [3]: 64.9 µg/mL (≈ 143 µM) |
| COC(=O)/C(C)=C\CCC(C)[C@@H]1CC[C@]2(C)C3=CCC4C(C)(C)[C@H](O)CC[C@]4(C)C3CC[C@@]12C (stereo partly drawn) [Compound 3a, Methyl 3α-hydroxytirucalla-7,24Z-dien-27-oate] |  |  |  | I | > 200 | I |  |
| CC(=O)OC1CC[C@]2(C)C3CC[C@@]4(C)[C@H](C(C)CC/C=C(\C)C(=O)O)CC[C@]4(C)C3=CCC2C1(C)C (stereo partly shown) [Compound 2b, 3ξ-Acetoxytirucalla-7,24E-dien-27-oic acid] | 1.1 | 58.4 (≈ 117 µM) |  | I | 69.3 (≈ 139 µM) | I |  |
| CCCCCCCCCCCCCCCCOP(=O)([O-])OCC[N+](C)(C)C [miltefosine, reference compound] |  |  | 7 |  |  |  | IC50 L. infantum Promastigotes (standard drug) [4]: 6.87 µg/mL (≈ 16.9 µM); CC50 at 48 h [1, 9]: 49.7 µg/mL (≈ 122 µM); IC50 L. infantum Amastigotes (standard drug) [5]: 7.25 µg/mL (≈ 17.8 µM) |
| C/C(=C/CCC(C)[C@@H]1CC[C@]2(C)C3=CCC4C(C)(C)C(O)CC[C@]4(C)C3CC[C@@]12C)C(=O)O (stereo partly shown) [Compound 1a, 3ξ-Hydroxytirucalla-7,24Z-dien-27-oic acid] | 3.4 | 20.2 (≈ 44.2 µM) |  |  | 69.5 (≈ 152 µM) | I |  |
| CC(CCCC(C)[C@@H]1CC[C@]2(C)C3=CCC4C(C)(C)C(=O)CC[C@]4(C)C3CC[C@@]12C)C(=O)O (stereo partly shown) [Compound 1c, 3-Oxotirucall-7-en-27-oic acid] |  |  |  | I | > 200 | I | T. cruzi (Trypomastigotes) Experimental [2]: I |
| COC(=O)/C(C)=C\CCC(C)[C@@H]1CC[C@]2(C)C3=CCC4C(C)(C)[C@H](OC(C)=O)CC[C@]4(C)C3CC[C@@]12C (stereo partly drawn) [Compound 3b, Methyl 3α-acetoxytirucalla-7,24Z-dien-27-oate] |  |  |  | I | > 200 | I |  |
| CC(=O)OC1CC[C@]2(C)C3CC[C@@]4(C)[C@H](C(C)CCCC(C)C(=O)O)CC[C@]4(C)C3=CCC2C1(C)C (stereo partly shown) [Compound 2c, 3ξ-Acetoxytirucall-7-en-27-oic acid] | 1.2 | 49.2 (≈ 98.2 µM) |  | I | 57.8 (≈ 115 µM) | I |  |
| CNC[C@H](O)[C@@H](O)[C@H](O)[C@H](O)CO.[O]=[Sb](=[O])[OH] [glucantime] |  |  |  |  |  |  | effectiveness against the extracellular forms of the parasite [6]: no effectiveness |
| CC(CCCC(C)[C@@H]1CC[C@]2(C)C3=CCC4C(C)(C)C(O)CC[C@]4(C)C3CC[C@@]12C)C(=O)O (stereo partly shown) [Compound 1b, 3ξ-Hydroxytirucall-7-en-27-oic acid] | 4.3 | 17.6 (≈ 38.5 µM) |  |  | 76.4 (≈ 167 µM) | I |  |
| COC(=O)/C(C)=C/CCC(C)[C@@H]1CC[C@]2(C)C3=CCC4C(C)(C)C(=O)CC[C@]4(C)C3CC[C@@]12C (stereo partly shown) [Compound 2d, Methyl 3-oxotirucalla-7,24E-dien-27-oate] |  |  |  |  |  | I | NCTC Experimental (NCTC clone 929 cells; cytotoxicity class): I; CC50 at 48 h [1, 9]: > 200 µg/mL; T. cruzi (Trypomastigotes) Experimental [2]: I |
| C/C(=C\CCC(C)[C@@H]1CC[C@]2(C)C3=CCC4C(C)(C)C(O)CC[C@]4(C)C3CC[C@@]12C)C(=O)O (stereo partly shown) [Compound 2a, 3ξ-Hydroxytirucalla-7,24E-dien-27-oic acid] | 3.2 | 29.6 (≈ 64.8 µM) | 1.0 | I | 95.5 (≈ 209 µM) |  | IC50 [3]: 97.6 µg/mL (≈ 214 µM) |
| C/C(=C/CCC(C)[C@@H]1CC[C@]2(C)C3=CCC4C(C)(C)[C@H](O)CC[C@]4(C)C3CC[C@@]12C)C(=O)O (stereo partly drawn) [Compound 3, 3α-Hydroxytirucalla-7,24Z-dien-27-oic acid] | 4.3 | 16.3 (≈ 35.6 µM) | 2.4 |  | 69 (≈ 151 µM) |  | CC50 CI95% NCTC (NCTC clone 929 cells; mouse, 48 h): 69.50 (64.01–75.45) μg/mL; IC50 [7]: 57.8 µg/mL (≈ 127 µM); IC50 [3]: 28.9 µg/mL (≈ 63.4 µM) |
| O=C(Cn1ccnc1[N+](=O)[O-])NCc1ccccc1 [benznidazole] |  |  |  |  |  |  | IC50 T. cruzi Trypomastigotes (standard drug) [8]: 115 µg/mL (≈ 441 µM) |
| C/C(=C/CCC(C)[C@@H]1CC[C@]2(C)C3=CCC4C(C)(C)C(=O)CC[C@]4(C)C3CC[C@@]12C)C(=O)O (stereo partly shown) [Compound 1, 3-Oxotirucalla-7,24Z-dien-27-oic acid] |  |  | >3 |  |  |  | NCTC Experimental (NCTC clone 929 cells; cytotoxicity class): I; CC50 at 48 h [1, 9]: > 200 µg/mL; IC50 against T. cruzi trypomastigotes ([2]; 24 h): lack of activity; T. cruzi (Trypomastigotes) Experimental [2]: I; IC50 [3]: 66.5 µg/mL (≈ 146 µM) |
